Data reported in publication PMC8000395, “Effective Small Molecule Antibacterials from a Novel Anti-Protein Secretion Screen” (Microorganisms, 2021).
Values joined by “and” are separate entries in the source; they are usually repeats but may differ in a detail not shown here. Equal values may be shown once. Read-outs that look alike come from different tables or passages of the source.

Tests used:
[1] = tested on: PhoA secretion in E. coli BW25113; test: Lab-scale p-nitrophenyl PhoA secretion assay, BW25113; format: cell-based; conditions: Escherichia coli, read-out: PhoA secretion in vivo IC50, E. coli BW25113
[2] = tested on: Providencia stuartii; test: Antimicrobial activity test (growth, OD600); format: cell-based; conditions: read-out: Bacterial Viability (IC50)
[3] = tested on: Enterobacter cloacae; test: Antimicrobial activity test (growth, OD600); format: cell-based; conditions: read-out: Bacterial Viability (IC50)
[4] = tested on: Morganella morganii; test: Antimicrobial activity test (growth, OD600); format: cell-based; conditions: read-out: Bacterial Viability (IC50)
[5] = tested on: Gram-positive bacteria; test: Antimicrobial activity test, summary over Gram-positive bacteria; format: cell-based
[6] = Turbidimetric kinetic aqueous solubility assay; format: physicochemical; conditions: kinetic from dmso stock
Method: The determination of the aqueous solubility of compounds in this assay is based on the principle of turbidimetry. Turbidimetric methods rely on the measurement of light scattering from precipitate in solution to determine the solubility. Precipitation is identified by an absorbance increase due to blockage of the light by the particles at the wavelength of 570 nm. Compounds, stored in matrix vials (Thermo Fisher) at a stock concentration of 30 mM or 10 mM in 100% Dimethyl sulfoxide (DMSO), were used to make a serial dilution (dose-response) in a 96-well v-bottom propylene plate (Greiner, 651201). Serial dilutions are made to perform the solubility assay; they were made row-wise and start with undiluted compound (30 mM or 10 mM) in the first well and were then 1 over 3 diluted further on. The serial dilutions were eight doses long and contain six compounds per plate maximal (rows B-G). Columns 1 and 12 were filled with 100% DMSO for control purposes. The dose-response plates were 200-times diluted in 300 µL Phosphate Buffered Saline (PBS; pH = 7–7.2 without Ca^2+/Mg^2+) (Gibco, 14190-144) by transferring 1.5 µL of serially diluted compound. […] Dilutions were made by diluting one 96-well plate in two 96-well, flat-bottom, polystyrene plates (Greiner, 655101). These plates were then incubated at room temperature for 1h. After 1h incubation, the plates were read on the envision (Perkin Elmer) at 570 nm.
The data of this assay is reported as “Soluble at” value for each compound. This “soluble at” value represents the concentration where the compound is still soluble and is the concentration before the first precipitated concentration. The first precipitated concentration is the concentration where the absorbance value is more than five standard deviations higher than the average background absorbance. The average background absorbance and the standard deviation are calculated on the 0.5% DMSO controls in columns 1 and 12.

[7] = tested on: Staphylococcus aureus ATC6538P; test: Antimicrobial activity test (growth, OD600); format: cell-based; conditions: Staphylococcus aureus ATC6538P; read-out: Bacterial Viability (IC50)
[8] = tested on: PhoA secretion in E. coli MC4100; test: microbe, parasite or virus in culture; format: cell-based; conditions: Escherichia coli; PNPP colorimetric lab-scale assay; read-out: Inhibition of PhoA Secretion IC50, Lab-Scale
[9] = tested on: E. coli MC4100; test: Antimicrobial activity test (growth, OD600); format: cell-based; conditions: Escherichia coli, MC4100; 20 h, 37 °C, OD600; read-out: Bacterial Viability IC50, E. coli MC4100
[10] = tested on: Salmonella typhimurium; test: Antimicrobial activity test (growth, OD600); format: cell-based; conditions: Salmonella enterica, read-out: Bacterial Viability (IC50)
[11] = tested on: E. coli BL21; test: Antimicrobial activity test (growth, OD600); format: cell-based; conditions: Escherichia coli, BL21, BL21; 20 h, 37 °C, OD600; read-out: Bacterial Viability IC50, E. coli BL21
[12] = tested on: HEK293T cells; conditions: 24 h; for Toxicity of Mammalian Cells (HEK293T) LD50: human
Method: Hek293T cells were harvested and diluted obtaining a cell suspension with a concentration of 200,000 cells/mL in complete growth medium (DMEM, 4.5 g/L d-glucose, pyruvate 1 mM, 0.075% bicarbonate and 10% Fetal Bovine serum). Of this cell suspension, 50 µL (10,000/well) was seeded in a 384 well culture plate (white polystyrene, tissue culture treated) and incubated at 37 °C-5% CO2 for 4 h in a moisturized incubator, which enables the cells to adhere. After the incubation, small chemical compounds were diluted in medium and 10 µL of a compound solution was added onto the cells, ending up with the required compound concentration. The cells were incubated for 24 h at 37 °C-5% CO2 in a moisturized incubator where after × µL medium was removed to equalize the liquid levels within one plate ending up with ±25 µL/well. The amount of remaining cells/well was determined with ATPlite^TM 1step (Perkin Elmer) Adenosine TriPhosphate (ATP) monitoring system, which is based on firefly luciferase.
The cytotoxicity was calculated by subtracting RLU (relative light units) obtained from the cells incubated with a compound from the RLUs obtained from cells in the presence of the vehicle.
The cytotoxic effect of a test compound was determined as:
Percent cell death = [1−((RLU determined for sample with test compound present—1) divided by (RLU determined in the presence of vehicle—1))] * 100.

[13] = tested on: Serratia marcescens; test: Antimicrobial activity test (growth, OD600); format: cell-based; conditions: read-out: Bacterial Viability (IC50)
[14] = tested on: Pseudomonas aeruginosa 3/88; test: Antimicrobial activity test (growth, OD600); format: cell-based; conditions: read-out: Bacterial Viability (IC50)
[15] = tested on: Klebsiella pneumoniae ATCC 27799; test: Antimicrobial activity test (growth, OD600); format: cell-based; conditions: ATCC27799, read-out: Bacterial Viability (IC50)
[16] = tested on: Proteus vulgaris; test: Antimicrobial activity test (growth, OD600); format: cell-based; conditions: read-out: Bacterial Viability (IC50)
[17] = tested on: E. coli BW25113ΔtolC; test: Antimicrobial activity test (growth, OD600); conditions: for Higher sensitivity of ΔtolC and imp-2413+ derivatives compared to BW25113: viability, Figure 5A
[18] = tested on: B. subtilis ATCC6633; test: Antimicrobial activity test (growth, OD600); format: cell-based; conditions: Bacillus subtilis, ATCC6633; 20 h, 37 °C, OD600; read-out: Bacterial Viability IC50, B. subtilis ATCC6633
[19] = tested on: Shigella sonnei; test: Antimicrobial activity test (growth, OD600); format: cell-based; conditions: read-out: Bacterial Viability (IC50)
[20] = tested on: E. coli BW25113::imp-2413+; test: Antimicrobial activity test (growth, OD600); conditions: Escherichia coli, BW25113, read-out: Viability IC50, BW25113::imp-2413+
[21] = B. subtilis, S. aureus, E. faecalis, S. pneumoniae, M. abscessus, read-out: Viability of Gram-positive bacteria IC50 (range over species)
[22] = for 80% of strains, selection threshold, Figure 1B, read-out: Bactericidal activity Gram+ IC50
[23] = pH 7, aqueous buffer, turbidimetry 570 nm, PBS pH 7–7.2, 0.5% DMSO, 1 h, read-out: Aqueous Solubility (soluble at)
[24] = pH 7.1, aqueous buffer, selection threshold, Figure 1B, read-out: Solubility

Structure (SMILES) | IC50 [1] [µM] | IC50 [2] [µM] | IC50 [3] [µM] | IC50 [4] [µM] | IC50 [5, 21] [µM] | IC50 [5, 22] [µM] | solubility at 1 h [6, 23] | solubility at 1 h [6, 24] [µM] | IC50 [7] [µM] | IC50 [8] [µM] | IC50 [9] [µM] | IC50 [10] [µM] | IC50 [11] [µM] | Human cell toxicity LD50 [12] [µM] | Toxicity of Mammalian Cells (HEK293T) LD50 [12] [µM] | IC50 [13] [µM] | IC50 [14] [µM] | IC50 [15] [µM] | IC50 [16] [µM] | Higher sensitivity of ΔtolC and imp-2413+ derivatives compared to BW25113 [17] [times] | other results
O=C(/C=C/c1csnn1)c1ccccc1Cl [HSI#01] | 8.13 | > 100 | > 100 | > 100 | 7 to 38 | < 28 | 50 µM and 12.5 µg/mL | > 15 | 14.8 | 12.5 | > 100 | > 100 | > 100 | > 15 | 6.7 | > 100 | > 100 | 80 to 100 | 80 to 100 | 2 to 40 | IC50 ([17]; Escherichia coli, read-out: Viability IC50, BW25113ΔtolC, E. coli strain missing TolC): < 14 µM; IC50 [18]: 37.6 µM; IC50 [19]: > 100 µM; IC50 [20]: 23.2 µM
O=C(/C=C/c1csnn1)c1cc(Cl)ccc1Cl [HSI#05] | 3.2 | > 100 | > 100 | > 100 | 7 to 38 | < 28 | 4.8 µg/mL | > 15 | 4.1 | 7 | > 100 | > 100 | > 100 | > 15 | 6.7 | > 100 | > 100 | > 100 | > 100 | 2 to 40 | IC50 ([17]; read-out: Viability IC50, BW25113ΔtolC, E. coli strain missing TolC, listed as HSI#5): < 14 µM; IC50 [18]: 27.8 µM; IC50 [19]: > 100 µM; IC50 [20]: 10.3 µM
O=C(/C=C/c1csnn1)c1cccc2ccccc12 [HSI#10] | 24.9 | > 100 | > 100 | > 100 | 7 to 38 | < 28 | 4.4 µg/mL | > 15 | 7.8 | 19.6 | > 100 | > 100 | > 100 | > 15 | 6.7 | > 100 | > 100 | > 100 | > 100 | 2 to 40 | IC50 [18]: 26 µM; IC50 [19]: > 100 µM; IC50 [20]: 12.2 µM
